Reference: publication PMC11464777, “Approved drugs successfully repurposed against Leishmania based on machine learning predictions” (Frontiers in Cellular and Infection Microbiology, 2024)
Converted amounts (≈) assume the structure as drawn. Where two headings read alike, the source gives them in different places.

What was measured:
[1] = Cytotoxicity assay towards THP-1-derived macrophages (MTT); type: cell-based, human; conditions: human, THP-1-derived macrophages (PMA-differentiated); for CC50 at 72 h: 72 h of treatment, uninfected cells, MTT; for viability at 72 h, 200 µg/mL: at 200 µg/mL
Description: (§1) Louis, MO, USA). The PMA-treated THP-1 cells were maintained in this condition for 24 h, followed by a 24 h of rest period after the removal of PMA. […] The cytotoxicity towards THP-1-derived macrophages was assessed after 24, 48 and 72 hours of incubation by MTT assay as described above. […] The percentage of viable cells was calculated from the Optical Density at 570 nm as follows: […]

[2] = test system: THP-1-derived macrophages; assay: as above; type: cell-based, human; conditions: for Cytotoxicity on THP-1-derived macrophages: 24, 48, 72 h
Description: as §1

[3] = test system: L. major Empa-12 promastigotes; assay: MTT-based promastigote viability assay, L. major Empa-12; type: cell-based; conditions: Leishmania major
Source text: (§2) Three Tunisian laboratory strains already described ([Oualha et al., 2019]), originally isolated from distinct clinical manifestations were used in this study: (i) L. infantum LV50 MHOM/TN/94/LV50) strain originating from a bone marrow of a visceral leishmaniasis patient, (ii) L. infantum Drep-14 (MHOM/TN/96/Drep-14) strain isolated from a lesion of a sporadic cutaneous leishmaniasis patient and (iii) L. major Empa-12 (MHOM/TN/2012/Empa-12) strain isolated from a zoonotic cutaneous leishmaniasis patient. Stocks of these parasites obtained after passage through BALB/c mice were used as previously described ([Oualha et al., 2019]). Thawed cryopreserved parasites were cultured at 22°C in RPMI-1640/Glutamax medium (Gibco BRL, Germany) containing penicillin (100 U/mL) and streptomycin (100 μg/mL) supplemented with 10% heat-inactivated Fetal Bovine Serum (FBS) (Gibco BRL, Germany).
(§3) The effect of the selected compounds on the viability of Leishmania promastigotes was evaluated by a colorimetric MTT (3-(4,5-dimethylthiazol-2yl)-2,5-diphenyl tetrazolium bromide) assay. It consists in the reduction of tetrazolium salt to a […] crystal (blue formazan) by the succinate dehydrogenase activity of mitochondria in living cells, which can be quantified by spectrophotometry. Briefly, 90 μL of promastigotes (5 × 10^5 parasites/well) harvested from the stationary growth phase of each strain were added to a 96-well culture plate and incubated with 10 μL of a range of serial dilutions of the selected compounds in technical replicates (final concentration of 1% DMSO per well) ([Ioset et al., 2009]; [Harigua-Souiai et al., 2018]). […] After 72h of incubation at 22°C, 25 μl of MTT solution (5 mg/mL) was added to each well and incubated at 22°C for 4h. Then, 150 μl of DMSO was added to each well to dissolve the blue formazan and the optical density (OD) was measured at 570 nm with a microplate reader ([…], Labsystems). Promastigotes incubated in complete medium containing 1% DMSO were used as negative control. The standard anti-Leishmania drug, Amphotericin B was used as a positive control. All experiments were performed in two technical replicates and repeated three times in independent experiments. The mean percentage of promastigotes viability was calculated from the Optical Density at 570 nm as follows:
(§4) Promastigote viability (%)= [(ODcompound− ODblank)/(ODnegative control −ODblank)]*100
(§5) Results were expressed as the mean value of the percentage of promastigotes viability ± standard deviation (SD).

[4] = test system: L. infantum (LV50 and Drep-14) and L. major (Empa-12) promastigotes; assay: MTT promastigote viability assay, stated across the three strains; type: cell-based, Leishmania infantum, Leishmania major; conditions: 72 h; for IC50: Leishmania infantum, LV50, Drep-14, Empa-12, MTT, read-out: Promastigotes IC50, span over the three strains; for Effect on promastigote viability: three strains, at the tested concentrations
Source text: as §2, §3, §4, §5

[5] = test system: L. infantum Drep-14 intracellular amastigotes; assay: Anti-amastigote assay in THP-1-derived macrophages, L. infantum Drep-14; type: cell-based, Leishmania infantum; conditions: for Selectivity Index (SI): CC50 THP-1 / IC50 amastigotes Drep-14, 72 h; for IC50: Leishmania infantum, Macrophage, Drep-14, intramacrophage, 72 h
Description: (§6) THP-1-derived macrophages (5 × 10^4/well) were seeded in each 8-well Labtek slides (Thermo Scientific). Adherent macrophages were obtained as described above, then infected with stationary phase promastigotes of each strain at a ratio 10:1 (10 parasites/macrophage) in RPMI medium containing penicillin (100 U/mL) and streptomycin (100 μg/mL) with 10% fetal bovine serum (Gibco, Brazil) at 37°C in 5% CO2 for 24 h. […] Non-infected control cells were incubated in a supplemented RPMI medium containing 1% DMSO. After 72h of incubation, cells were fixed and stained using May-Grunwald-Giemsa staining with RAL 555 Kit (RAL DIAGNOSTICS, France), following the manufacturer’s instructions. The percentage of infected cells and the total number of internalized parasites per 100 macrophages were determined under immersion oil (magnification of 1000X) using light microscopy. The percentage of amastigotes viability was expressed as the percentage of total number of internalized parasites within treated cells relative to the total number of internalized parasites within control cells treated with 1% DMSO, and calculated as follows:
(§7) Relative amastigote viability (%) = [(number of amastigotes/100 treated cells)/(number of amastigotes/100 treated cells with1% DMSO)] * 100
(§8) The relative percentage of amastigote viability was evaluated to calculate half inhibitory concentrations (IC50). The mean IC50 values were determined by plotting the curves of the logarithm of compound concentrations versus the relative amastigote viability of three independent experiments performed in two technical replicates for each compound fitted into a nonlinear regression model, using GraphPad Prism version 8.0.1. Selectivity Index (SI) values were calculated as the ratio between cytotoxicity and activity against amastigotes and determined for each compound as follows: SI= CC50/IC50.

[6] = test system: L. major Empa-12 intracellular amastigotes; assay: Anti-amastigote assay in THP-1-derived macrophages, L. major Empa-12; type: cell-based, Leishmania major; conditions: for Selectivity Index (SI): CC50 THP-1 / IC50 amastigotes Empa-12, 72 h; for IC50: Leishmania major, Macrophage, Empa-12, intramacrophage, 72 h
Description: as §6, §7, §8

[7] = test system: L. infantum LV50 promastigotes; assay: MTT-based promastigote viability assay, L. infantum LV50; type: cell-based; conditions: Leishmania infantum
Source text: as §2, §3, §4, §5

[8] = test system: L. infantum Drep-14 promastigotes; assay: microbe, parasite or virus in culture; type: cell-based; conditions: Leishmania infantum
Source text: as §2, §3, §4, §5

[9] = test system: L. infantum LV50 intracellular amastigotes; assay: Anti-amastigote assay in THP-1-derived macrophages, L. infantum LV50; type: cell-based, Leishmania infantum; conditions: for Selectivity Index (SI): CC50 THP-1 / IC50 amastigotes LV50, 72 h; for IC50: Leishmania infantum, Macrophage, LV50, intramacrophage, 72 h
Description: as §6, §7, §8

[10] = test system: L. major and L. infantum amastigotes; assay: Anti-amastigote assay, stated across the three strains; type: cell-based, Leishmania infantum, Leishmania major
Description: as §6, §7, §8

[11] = test system: Leishmania (Viannia) braziliensis; set-up: method as in Cazorla et al., 2004; conditions: hamsters infected with Leishmania (Viannia) braziliensis, versus Glucantime; ref Cazorla et al., 2004; cited from earlier work
[12] = read-out: THP-1-derived macrophages CC50
[13] = read-out: THP-1-derived macrophages CC50 (in brackets) (converted)
[14] = Empa-12, 72 h, MTT, read-out: Promastigotes IC50
[15] = Empa-12, 72 h, MTT, read-out: Promastigotes IC50 (in brackets) (converted)
[16] = read-out: Amastigotes IC50 (in brackets) (converted)
[17] = LV50, 72 h, MTT, read-out: Promastigotes IC50
[18] = LV50, 72 h, MTT, read-out: Promastigotes IC50 (in brackets) (converted)
[19] = 72 h, read-out: Promastigotes IC50
[20] = 72 h, read-out: Promastigotes IC50 (in brackets)
[21] = 72 h, LV50, Drep-14, Empa-12; intramacrophage, 72 h; read-out: Amastigotes IC50, span over the three strains

Row | Structure (SMILES) | CC50 at 72 h [1, 12] | CC50 at 72 h [1, 13] | viability at 72 h, 200 µg/mL ([1]; read-out: Macrophage viability) | Cytotoxicity on THP-1-derived macrophages [2] | IC50 [3, 14] | IC50 [3, 15] | IC50 [4] | Selectivity Index (SI) [5] | IC50 ([5]; read-out: Amastigotes IC50) | IC50 [5, 16] | Selectivity Index (SI) [6] | IC50 ([6]; read-out: Amastigotes IC50) | IC50 [6, 16] | IC50 [7, 17] | IC50 [7, 18] | IC50 [8, 19] | IC50 [8, 20] | Selectivity Index (SI) [9] | IC50 ([9]; read-out: Amastigotes IC50) | IC50 [9, 16] | further results
1 | CCCC(=O)Nc1ccc(OCC(O)CNC(C)C)c(C(C)=O)c1 (stereo not shown) [Acebutolol] | > 200 mg/L | > 536 µM | 90 to 100% | no significant cytotoxicity | 103 ± 10.9 mg/L | 276 µM | 69.3 to 146 mg/L (≈ 206 to 433 µM) | > 14.45 | 13.8 ± 1.41 mg/L | 37.1 µM | > 8.98 | 22.3 ± 1.59 mg/L | 59.8 µM | 146 ± 16.4 mg/L | 390 µM | 69.3 ± 5.7 mg/L | 186 µM | > 12.73 | 15.7 ± 2.75 mg/L | 42.1 µM | Effect on promastigote viability [4]: dose-dependent decrease of parasite viability; IC50 [10, 21]: 13.8 to 66.8 mg/L (≈ 41.1 to 199 µM)
2 | C[C@@H]1[C@H](O)[C@@H](C)/C=C/C=C/C=C/C=C/C=C/C=C/C=C/[C@H](O[C@@H]2O[C@H](C)[C@@H](O)[C@H](N)[C@@H]2O)C[C@@H]2O[C@](O)(C[C@@H](O)C[C@@H](O)[C@H](O)CC[C@@H](O)C[C@@H](O)CC(=O)O[C@H]1C)C[C@H](O)[C@H]2C(=O)O [Amphotericin B] | > 5 mg/L | > 5.41 µM |  | no cytotoxic effect | 0.2 ± 0.01 mg/L | 0.22 µM | 0.15 to 0.2 mg/L (≈ 0.162 to 0.216 µM) | > 125.00 | 0.04 ± 0.006 mg/L | 0.043 µM | > 100.00 | 0.05 ± 0.005 mg/L | 0.054 µM | 0.15 ± 0.01 mg/L | 0.16 µM | 0.2 ± 0.004 mg/L | 0.22 µM | > 166.66 | 0.03 ± 0.004 mg/L | 0.032 µM | IC50 ([10]; LV50, Drep-14, Empa-12; intramacrophage, 72 h; read-out: Amastigotes IC50, span over the three strains): 0.03 to 0.05 mg/L (≈ 0.0325 to 0.0541 µM)
3 | CNC[C@H](O)c1cccc(O)c1 [Phenylephrine] | > 200 mg/L | > 1200 µM | 90 to 100% | no significant cytotoxicity | > 200 mg/L | > 1200 µM | > 200 mg/L | > 4.96 | 40.2 ± 3.15 mg/L | 241 ± 113 µM | > 2.99 | 66.8 ± 7.28 mg/L | 400 ± 260 µM | > 200 mg/L | > 1200 µM | > 200 mg/L | > 1200 µM | > 5.68 | 35.2 ± 4.86 mg/L | 211 ± 174 µM | IC50 ([3]; Empa-12, extrapolated beyond tested range (200 µg/mL), GraphPad, read-out: Promastigotes IC50 estimated through extrapolation): 266 ± 79.5 mg/L; Effect on promastigote viability [4]: dose-dependent decrease of parasite viability; IC50 ([7]; LV50, extrapolated beyond tested range (200 µg/mL), GraphPad, read-out: Promastigotes IC50 estimated through extrapolation): 219 ± 25.5 mg/L; IC50 ([8]; read-out: Promastigotes IC50 estimated through extrapolation): 275 ± 36.6 mg/L
4 | CCCNC(C)C(=O)Nc1ccccc1C (stereo not shown) [Prilocaine] | > 200 mg/L | > 1820 µM | 90 to 100% | no significant cytotoxicity | 33.1 ± 2.3 mg/L | 150 µM | 33.1 to 45.8 mg/L (≈ 150 to 208 µM) | > 13.14 | 30.4 ± 2.3 mg/L | 138 µM | > 13.02 | 30.7 ± 2.2 mg/L | 139 µM | 45.8 ± 2.46 mg/L | 208 µM | 34.8 ± 3.22 mg/L | 158 µM | > 15.25 | 26.2 ± 3.14 mg/L | 119 µM | viability ([1]; at the IC50 value on the promastigotes, read-out: Macrophage viability): 90 to 100%; Concentration at which cytotoxic effects start ([2]; 72 h of incubation): 400 µg/mL; Effect on promastigote viability [4]: dose-dependent decrease of parasite viability; IC50 [10, 21]: 13.8 to 66.8 mg/L (≈ 62.8 to 303 µM)
5 | CCN(CC)CCOC(=O)c1ccc(N)cc1 [Procaine] |  |  |  |  |  |  |  |  |  |  |  |  |  |  |  |  |  |  |  |  | Efficacy of intralesional treatment in hamsters [11]: lower efficacy
